Article PMC6277767, “Broad and Region-Specific Impacts of the Synthetic Cannabinoid CP 55,940 in Adolescent and Adult Female Mouse Brains” (Frontiers in Molecular Neuroscience, 2018)

Test system: CD1 female mouse brain lipidome
Assay: Brain-region lipid levels (HPLC/MS/MS lipidomics) 2 h after single i.p. 3 mg/kg CP 55,940 vs vehicle
Assay type: in vivo
Set-up: N-arachidonoyl phenylalanine level, Mean / N-stearoyl tryptophan level, Mean / N-stearoyl proline level, Mean / N-stearoyl leucine level, Mean / N-stearoyl phenylalanine level, Mean / N-stearoyl serine level, Mean / N-stearoyl methionine level, Mean: unit: moles per gram
Method: The Bloomington Institutional Animal Care and Use Committee of Indiana University reviewed and approved the animal procedures. Female mice from the CD1 strain were utilized to match our study examining THC’s effects on the brain lipidome ([Leishman et al., 2018]). Mice were given a single i.p. injection of either 3 mg/kg CP or 1:1:18 cremophor:ethanol:saline vehicle (please refer to the section “3 mg/kg CP Is Relevant for Synthetic Cannabinoid Abuse and Has Stronger Effects on the Female Mouse Brain Lipidome During Adolescence” for a justification of dose and use of female mice). Three different age groups were given injections: PND 35 and PND 50 adolescents, and adult mice (PND 113). At least eight mice in each age group received CP and at least eight received vehicle. Matching the THC study time course ([Leishman et al., 2018]), mice were sacrificed via rapid decapitation 2 h after injection. Brains were immediately removed and flash-frozen in liquid nitrogen, and then stored at -80°C until dissections were performed. Brains were dissected on an ice-cold dissection plate into the following regions: STR, HIPP, CER, THAL, CTX, HYP, MID, and STEM. These abbreviations for these brain areas will be used exclusively when discussing the results generated by these specific dissections. Each dissected area was immediately placed in liquid nitrogen and then stored at -80°C until used for lipid extraction.
Tissue extracts were performed as previously described ([Bradshaw et al., 2006]; [Stuart et al., 2013]; [Raboune et al., 2014]; [Leishman et al., 2016a],[b], [2017], [2018]). First, samples were shock frozen in liquid nitrogen, weighed, and transferred to a centrifuge tube. The mass of the largest sample was multiplied by 50 to determine how many milliliters of HPLC-grade methanol (Fisher, Fair Lawn, NJ, United States) to add. Then, samples were spiked with 500 pmol deuterium-labeled NAGly (d8NAGly; Cayman Chemical, Ann Arbor, MI, United States). Samples were placed on ice in darkness for 2 h then individually homogenized and centrifuged at 19,000 × g for 20 min at 20°C. Supernatants were diluted with HPLC water (purified in house) to make a solution of 75% water, 25% supernatant. Lipids were partially purified on C18 solid phase extraction columns (Agilent, Palo Alto, CA, United States). A series of four elutions with 1.5 mL of 60%, 75%, 85%, and 100% methanol were collected ([Stuart et al., 2013]; [Leishman et al., 2016a],[b], [2018]).
As previously described ([Bradshaw et al., 2006]; [Tan et al., 2006]; [Smoum et al., 2010]; [Stuart et al., 2013]; [Tortoriello et al., 2013]; [Raboune et al., 2014]; [Leishman et al., 2016a],[b], [2017], [2018]), samples were analyzed using an Applied Biosystems API 3000 triple quadrupole mass spectrometer with electrospray ionization (Foster City, CA, United States). Using an Agilent XDB-C18 reversed phase analytical column and optimized mobile phase gradients, 20 μL from each elution were chromatographed. Two Shimadzu 10ADvp pumps (Columbia, MD, United States) provided the pressure for gradient elution. Mobile phase A: 20% methanol, 80% water (v/v) and 1 mM ammonium acetate (Sigma, St. Louis, MO, United States). Mobile phase B: 100% methanol, 1 mM ammonium acetate. Every method run began with 0% mobile phase B, reached 100% mobile phase B flowing at 0.2 mL/min, and gradually returned to 0% mobile phase B.
This screening library will be referred to as the lipidome when discussing data from this study. HPLC/MS/MS data were analyzed using Analyst software (Applied Biosystems) ([Bradshaw et al., 2006]; [Tan et al., 2006]; [Stuart et al., 2013]; [Tortoriello et al., 2013]; [Raboune et al., 2014]; [Leishman et al., 2016a],[b], [2017], [2018]). Chromatograms (Supplementary Figure 3) were generated by determining the retention time of analytes from the analytical column with a [M-1] or [M+1] parent peak and a fragmentation peak corresponding to the programmed values. […]

[1] = brainstem, PND 50, 3 mg/kg CP 55,940, one-way ANOVA p .062
[2] = brainstem, PND35 WT female mice, 3 mg/kg
[3] = cerebellum, PND 50, 3 mg/kg CP 55,940
[4] = cerebellum, PND 50 female mice, 3 mg/kg CP 55,940

Q: Which results are given for `CCCCCCC(C)(C)c1ccc([C@@H]2C[C@H](O)CC[C@H]2CCCO)c(O)c1` [CP 55,940]?
A: 2-oleoyl glycerol, Magnitude (x Veh level) (brainstem, PND 50, 3 mg/kg CP 55,940, one-way ANOVA p .046): 0.86 x Veh level; 2-palmitoyl glycerol, Direction (relative to Veh) [1]: ↓; 2-palmitoyl glycerol, Magnitude (x Veh level) [1]: 0.71 x Veh level; N-arachidonoyl GABA level, Mean [2]: 8.01E-12; N-arachidonoyl alanine level, Mean [2]: 6.76E-12; N-arachidonoyl ethanolamine level, Mean [2]: 2.09E-11; N-arachidonoyl glycine level, Mean [2]: 4.63E-11; N-arachidonoyl methionine level, Mean [2]: 8.72E-13; N-arachidonoyl phenylalanine level, Mean [2]: 9.69E-13; N-docosahexaenoyl GABA level, Mean [2]: 2.13E-12; N-docosahexaenoyl alanine level, Mean [2]: 4.95E-12; N-docosahexaenoyl ethanolamine level, Mean [2]: 4.42E-11; N-docosahexaenoyl glycine level, Mean [2]: 2.18E-11; N-docosahexaenoyl leucine level, Mean [2]: 5.85E-13; N-docosahexaenoyl phenylalanine level, Mean [2]: 8.51E-13; N-linoleoyl GABA level, Mean [2]: 8E-13; N-linoleoyl alanine level, Mean [2]: 1.32E-12; N-linoleoyl ethanolamine level, Mean [2]: 3.37E-11; N-linoleoyl glycine level, Mean [2]: 5.99E-12; N-linoleoyl leucine level, Mean [2]: 3.47E-13; N-oleoyl GABA level, Mean [2]: 4.65E-12; N-oleoyl alanine level, Mean [2]: 7.64E-12; N-oleoyl ethanolamine level, Mean [2]: 2.04E-10; N-oleoyl glycine level, Mean [2]: 2.66E-11; N-oleoyl leucine level, Mean [2]: 1.35E-12; N-oleoyl methionine level, Mean [2]: 1.16E-12; N-oleoyl phenylalanine level, Mean [2]: 1.05E-12; N-palmitoyl GABA level, Mean [2]: 7.63E-12; N-palmitoyl alanine level, Mean [2]: 8.91E-12; N-palmitoyl ethanolamine level, Mean [2]: 1.31E-10; N-palmitoyl glycine level, Mean [2]: 4.17E-11; N-palmitoyl leucine level, Mean [2]: 2.63E-12; N-palmitoyl methionine level, Mean [2]: 1.43E-12; N-palmitoyl phenylalanine level, Mean [2]: 2.02E-12; N-stearoyl GABA level, Mean [2]: 6.98E-12; N-stearoyl alanine level, Mean [2]: 1.31E-11; N-stearoyl ethanolamine level, Mean [2]: 3.25E-11; N-stearoyl glycine level, Mean [2]: 2.18E-11; N-stearoyl leucine level, Mean [2]: 8.28E-13; N-stearoyl methionine level, Mean [2]: 1.7E-12; N-stearoyl phenylalanine level, Mean [2]: 1.48E-12; 2-linoleoyl glycerol: Direction (relative to Veh) [3]: ↓; 2-linoleoyl glycerol: Magnitude (x Veh level) [3]: 0.65 x Veh level; 2-oleoyl glycerol: Direction (relative to Veh) [3]: ↓; 2-oleoyl glycerol: Magnitude (x Veh level) [3]: 0.77 x Veh level; 2-palmitoyl glycerol: Direction (relative to Veh) [3]: ↓; 2-palmitoyl glycerol: Magnitude (x Veh level) [3]: 0.69 x Veh level; 6-ketoPGF1α: Direction (relative to Veh) [3]: ↑; 6-ketoPGF1α: Magnitude (x Veh level) [3]: 1.33 x Veh level; Arachidonic acid: Direction (relative to Veh) [3]: ↓; Arachidonic acid: Magnitude (x Veh level) [3]: 0.74 x Veh level; Linoleic acid: Direction (relative to Veh) [3]: ↓; Linoleic acid: Magnitude (x Veh level) [3]: 0.73 x Veh level; N-arachidonoyl GABA: Direction (relative to Veh) [3]: ↓; N-arachidonoyl GABA: Magnitude (x Veh level) [3]: 0.75 x Veh level; N-arachidonoyl ethanolamine: Direction (relative to Veh) [3]: ↓; N-arachidonoyl ethanolamine: Magnitude (x Veh level) [3]: 0.81 x Veh level; N-arachidonoyl glycine: Direction (relative to Veh) [3]: ↓; N-arachidonoyl glycine: Magnitude (x Veh level) [3]: 0.68 x Veh level; N-arachidonoyl phenylalanine: Direction (relative to Veh) [3]: ↓; N-arachidonoyl phenylalanine: Magnitude (x Veh level) [3]: 0.60 x Veh level; N-arachidonoyl serine: Direction (relative to Veh) [3]: ↓; N-arachidonoyl serine: Magnitude (x Veh level) [3]: 0.78 x Veh level; N-arachidonoyl taurine: Direction (relative to Veh) [3]: ↓; N-arachidonoyl taurine: Magnitude (x Veh level) [3]: 0.83 x Veh level; N-arachidonoyl tyrosine: Direction (relative to Veh) [3]: ↓; N-arachidonoyl tyrosine: Magnitude (x Veh level) [3]: 0.73 x Veh level; N-docosahexaenoyl phenylalanine: Direction (relative to Veh) [3]: ↓; N-docosahexaenoyl phenylalanine: Magnitude (x Veh level) [3]: 0.77 x Veh level; N-linoleoyl ethanolamine: Direction (relative to Veh) [3]: ↓; N-linoleoyl ethanolamine: Magnitude (x Veh level) [3]: 0.77 x Veh level; N-oleoyl GABA: Direction (relative to Veh) [3]: ↓; N-oleoyl GABA: Magnitude (x Veh level) [3]: 0.76 x Veh level; N-oleoyl ethanolamine: Direction (relative to Veh) [3]: ↓; N-oleoyl ethanolamine: Magnitude (x Veh level) [3]: 0.85 x Veh level; N-oleoyl phenylalanine: Direction (relative to Veh) [3]: ↑; N-oleoyl phenylalanine: Magnitude (x Veh level) [3]: 1.26 x Veh level; N-palmitoyl leucine: Direction (relative to Veh) [3]: ↑; N-palmitoyl leucine: Magnitude (x Veh level) [3]: 1.63 x Veh level; N-palmitoyl valine: Direction (relative to Veh) [3]: ↑; N-palmitoyl valine: Magnitude (x Veh level) [3]: 1.49 x Veh level; Oleic acid: Direction (relative to Veh) [3]: ↓; Oleic acid: Magnitude (x Veh level) [3]: 0.83 x Veh level; PGE2: Direction (relative to Veh) [3]: ↓; PGE2: Magnitude (x Veh level) [3]: 0.68 x Veh level; PGF2α: Direction (relative to Veh) [3]: ↓; PGF2α: Magnitude (x Veh level) [3]: 0.72 x Veh level; 2-arachidonoyl glycerol level, Mean [4]: 1.99E-10; 2-linoleoyl glycerol level, Mean [4]: 1.45E-10; 2-oleoyl glycerol level, Mean [4]: 1.49E-09; 2-palmitoyl glycerol level, Mean [4]: 1.57E-09; 6-ketoPGF1α level, Mean [4]: 6.52E-12; 11-OH-THC level, Mean [4]: BDL; 11-nor-9-carboxyTHC level, Mean [4]: BDL; Arachidonic acid level, Mean [4]: 1.8E-10; Cannabidiol level, Mean [4]: BDL; Linoleic acid level, Mean [4]: 1.87E-10; N- stearoyl valine level, Mean [4]: 9.25E-14; N-arachidonoyl GABA level, Mean [4]: 3.92E-12; N-arachidonoyl dopamine level, Mean [4]: BDL; N-arachidonoyl ethanolamine level, Mean [4]: 2.25E-11; N-arachidonoyl glycine level, Mean [4]: 1.1E-12
